Reference: US11478474B2, “2-(3′-(hydroxymethyl)-1-methyl-5-((5-(2-methyl-4-(oxetan-3-yl)piperazin-1-yl)pyridin-2-yl)amino)-6-oxo-1,6-dihydro-[3,4′-bipyridin]-2′-yl)-7,7-dimethyl-7,8-dihydro-2H-cyclopenta[4,5]pyrrolo[1,2-a]pyrazin-1(6H)-one as a BTK inhibitor” (HUTCHISON MEDIPHARMA LIMITED, priority 2020, dated 2022)
pIC50: −log10 of the molar value.

Key:
BTK recombinant protein = BTK recombinant protein (Homo sapiens (Human), UniProt Q06187); assay: Determination of biochemical BTK (Z'-LYTE kinase assay)
Sequence of BTK recombinant protein (Q06187 whole entry): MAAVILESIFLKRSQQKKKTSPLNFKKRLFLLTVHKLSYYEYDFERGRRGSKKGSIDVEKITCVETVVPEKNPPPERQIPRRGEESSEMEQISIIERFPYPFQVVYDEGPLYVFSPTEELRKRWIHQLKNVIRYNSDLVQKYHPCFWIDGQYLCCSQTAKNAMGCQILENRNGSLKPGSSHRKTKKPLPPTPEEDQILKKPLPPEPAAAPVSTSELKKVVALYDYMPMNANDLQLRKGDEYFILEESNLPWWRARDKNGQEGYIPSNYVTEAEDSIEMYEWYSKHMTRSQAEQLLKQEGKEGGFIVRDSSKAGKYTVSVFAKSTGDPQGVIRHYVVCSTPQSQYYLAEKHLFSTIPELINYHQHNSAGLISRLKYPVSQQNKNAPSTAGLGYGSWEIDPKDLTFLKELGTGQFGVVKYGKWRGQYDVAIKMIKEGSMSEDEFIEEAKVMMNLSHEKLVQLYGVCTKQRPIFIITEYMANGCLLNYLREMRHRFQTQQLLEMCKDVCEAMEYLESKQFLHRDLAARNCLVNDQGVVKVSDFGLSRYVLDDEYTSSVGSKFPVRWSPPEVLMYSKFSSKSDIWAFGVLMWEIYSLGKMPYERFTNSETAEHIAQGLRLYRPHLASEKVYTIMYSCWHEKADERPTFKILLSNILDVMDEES
Outline: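 Human BTK recombinant kinase (3.32 nM final) was preincubated with compound for 30 min at 4 °C. Reaction ran 1 h at room temperature with Tyr01 FRET peptide (2 μM) and ATP (32 μM); development protease then added. Coumarin 445 nm/fluorescein 520 nm emission ratio (400 nm excitation) gave inhibition across 8 concentrations, 3000–1.37 nM.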

[1] = biological target: phosphorylated BTK in Ramos cells (Homo sapiens (Human), UniProt Q06187); assay: Determination of phosphorylated BTK in Ramos cells (BTK phospho-Y223 HTRF); assay type: cell-based; details: anti-human IgM + hydrogen peroxide stimulation
Sequence of phosphorylated BTK in Ramos cells (Q06187 whole entry): as above
Outline: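 BTK Y223 phosphorylation measured by HTRF (665/615 nm) in lysates of Ramos cells. Cells were serum-starved 2 h, exposed to compound for 1 h (final 0.00018–3.0 μM, 0.3% DMSO), then stimulated 10 min with 10 μg/mL anti-IgM and 3.3 mM H2O2. IC50 derived from percent inhibition between unstimulated and stimulated controls.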

Row | pIC50 (BTK recombinant protein) | pIC50 [1] | Structure (SMILES)
1 | 7.92 | 8.00 | COCC(C)N1CCn2nc(Nc3cc(-c4ccnc(-n5ccn6c7c(cc6c5=O)CC(C)(C)C7)c4CO)cn(C)c3=O)cc2C1 (stereo not drawn) [Compound 115]
2 | 8.05 | 7.80 | Cc1cc(Nc2cc(-c3ccnc(-n4ncn5c6c(cc5c4=O)CC(C)(C)C6)c3CO)cn(C)c2=O)no1 [Compound 192]
3 | 8.10 | 7.89 | COCc1cc(Nc2cc(-c3ccnc(-n4ccn5c6c(cc5c4=O)CC(C)(C)C6)c3CO)cn(C)c2=O)nn1C [Compound 154]
4 | 7.15 | 7.40 | COCCn1cc(Nc2cc(-c3ccnc(-n4ccn5c6c(cc5c4=O)CC(C)(C)C6)c3CO)cn(C)c2=O)cn1 [Compound 175]
5 | 7.89 | 7.89 | Cn1cc(-c2ccnc(-n3ccn4c5c(cc4c3=O)CC(C)(C)C5)c2CO)cc(Nc2ccncn2)c1=O [Compound 83]
6 | 8.52 | 8.52 | Cn1cc(-c2ccnc(-n3ccn4c5c(cc4c3=O)CC(C)(C)C5)c2CO)cc(Nc2ccc(C(=O)N3CCOCC3)cn2)c1=O [Compound 47]
7 | 7.96 | 8.15 | C[C@H]1CN(C2COC2)CCN1c1ccc(Nc2cc(-c3ccnc(-n4ccn5c6c(cc5c4=O)CC(C)(C)C6)c3CO)cn(C)c2=O)nn1 [Compound 204]
8 | 7.39 | 7.41 | Cc1ccc2c(c1)cc1c(=O)n(-c3nccc(-c4cc(Nc5ccc(N6CCN(C7COC7)C[C@@H]6C)cn5)c(=O)n(C)c4)c3CO)ccn12 [Compound 188]
9 | 7.55 | 7.70 | COCCN1CCn2nc(Nc3cc(-c4ccnc(-n5ccn6c7c(cc6c5=O)CC(C)C7)c4CO)cn(C)c3=O)cc2C1 (stereo not drawn) [Compound 168]
10 | 8.05 | 7.96 | Cn1cc(-c2ccnc(-n3ccn4c5c(cc4c3=O)CC(C)(C)C5)c2CO)cc(Nc2cccnn2)c1=O [Compound 84]
11 | 8.40 | 8.15 | C[C@H]1CN(C2COC2)CCN1c1ccc(Nc2cc(-c3ccnc(-n4ccn5c6c(c(F)c5c4=O)CCCC6)c3CO)cn(C)c2=O)nc1 [Compound 161]
12 | 7.46 | 6.92 | Cn1cc(-c2ccnc(-n3ncn4c5c(cc4c3=O)CCCC5)c2CO)cc(Nc2cc3n(n2)CCN(C2COC2)C3)c1=O [Compound 166]
13 | 7.59 | 8.15 | Cn1cc(-c2ccnc(-n3ccn4c5c(cc4c3=O)CC(C)(C)C5)c2CO)cc(Nc2ccc(F)cn2)c1=O [Compound 90]
14 | 8.40 | 8.40 | CC(C)n1cc(Nc2cc(-c3ccnc(-n4ccn5c6c(cc5c4=O)CC(C)(C)C6)c3CO)cn3ncnc23)nn1 [Compound 18]
15 | 7.89 | 7.89 | C[C@H]1CN(C(CO)CO)CCN1c1ccc(Nc2cc(-c3ccnc(-n4ccn5c6c(cc5c4=O)CC(C)(C)C6)c3CO)cn(C)c2=O)nc1 [Compound 185]
16 | 7.68 | 7.72 | CCn1cc(-c2ccnc(-n3ncn4c5c(cc4c3=O)CC(C)(C)C5)c2CO)cc(Nc2ccc(N3C[C@@H](C)N(C4COC4)C[C@@H]3C)cn2)c1=O [Compound 210]
17 | 7.80 | 8.22 | Cn1cc(Nc2cc(-c3ccnc(-n4ccn5c6c(cc5c4=O)CC(C)(C)C6)c3CO)cn(C)c2=O)cn1 [Compound 86]
18 | 7.77 | 7.92 | CN1CCn2nc(Nc3cc(-c4ccnc(-n5ccn6c7c(cc6c5=O)CC(C)(C)C7)c4CO)cn(C)c3=O)cc2C1=O [Compound 15]
19 | 7.96 | 8.30 | Cn1cc(-c2ccnc(-n3ccn4c5c(cc4c3=O)CC(C)(C)C5)c2CO)cc(Nc2ccc(NC3CCCOC3)cn2)c1=O (stereo not drawn) [Compound 45]
20 | 7.48 | 7.60 | C[C@H]1CN(C2COC2)CCN1c1ccc(Nc2cc(-c3ccnc(-n4ccn5c(cc6c(F)cccc65)c4=O)c3CO)cn(C)c2=O)nc1 [Compound 53]
21 | 8.10 | 8.70 | Cn1ccc(Nc2cc(-c3ccnc(-n4ccn5c6c(cc5c4=O)CC(C)(C)C6)c3CO)cn(C)c2=O)n1 [Compound 81]
22 | 8.70 | 7.55 | C[C@H]1CN(C2COC2)CCN1c1ccc(Nc2cc(-c3ccnc(-n4ncn5c(cc6ccccc65)c4=O)c3CO)cn(C)c2=O)nc1 [Compound 151]
23 | 7.48 | 7.89 | COc1ccc(Nc2cc(-c3ccnc(-n4ncn5c6c(cc5c4=O)CC(C)(C)C6)c3CO)cn(C)c2=O)nc1 [Compound 133]
24 | 8.40 | 8.30 | Cn1cc(-c2ccnc(-n3ncn4c5c(cc4c3=O)CC(C)(C)C5)c2CO)cc(Nc2cc3n(n2)CCN(C#N)C3)c1=O [Compound 143]

Row | pIC50 (BTK recombinant protein) | pIC50 [1] | Structure (SMILES)
25 | 7.22 | 7.52 | COc1ccc(Nc2cc(-c3ccnc(-n4ccn5c6c(cc5c4=O)CC(C)(C)C6)c3CO)cn(C)c2=O)nn1 [Compound 169]
26 | 8.30 | 9.00 | CC1c2cc(Nc3cc(-c4ccnc(-n5ncn6c7c(cc6c5=O)CC(C)(C)C7)c4CO)cn(C)c3=O)nn2CCN1C1COC1 (stereo not drawn) [Compound 118]
27 | 8.10 | 8.00 | CC[C@H]1CN(C2COC2)CCN1c1ccc(Nc2cc(-c3ccnc(-n4ccn5c6c(cc5c4=O)CC(C)(C)C6)c3CO)cn(C)c2=O)nn1 [Compound 217]
28 | 7.92 | 8.70 | COCCN1CCn2nc(Nc3cc(-c4ccnc(-n5ncn6c7c(cc6c5=O)CC(C)(C)C7)c4CO)cn(C)c3=O)cc2C1 [Compound 107]
29 | 8.00 | 7.96 | COCCN1CCn2nc(Nc3cc(-c4ccnc(-n5ccn6c7c(cc6c5=O)CC(C)(C)C7)c4CO)cn(C)c3=O)cc2[C@@H]1C [Compound 116]
30 | 7.82 | 7.82 | C[C@H]1CN(C2COC2)CCN1c1ccc(Nc2cc(-c3ccnc(-n4ncn5c6c(cc5c4=O)CC(C)(C)C6)c3CO)cn(C)c2=O)nn1 [Compound 213]
31 | 7.23 | 7.27 | Cn1cc(-c2ccnc(-n3ccn4c5c(cc4c3=O)CCC5)c2CO)cc(Nc2cc3n(n2)CCN(C2COC2)C3)c1=O [Compound 134]
32 | 7.46 | 8.30 | CCN(CCOC)c1ccc(Nc2cc(-c3ccnc(-n4ccn5c6c(cc5c4=O)CC(C)(C)C6)c3CO)cn(C)c2=O)nc1 [Compound 1, 2-(5-((5-(ethyl (2-methoxyethyl)amino)pyridin-2-yl)amino)-3′-(hydroxymethyl)-1-methyl-6-oxo-1,6-dihydro-[3,4′-bispyridin]-2′-yl)-7,7-dimethyl-7,8-dihydro-2H-cyclopenta[4,5]pyrrolo[1,2-a]pyrazin-1(6H)-one]
33 | > 9.00 | 8.15 | C[C@H]1COCCN1c1ccc(Nc2cc(-c3ccnc(-n4ccn5c6c(cc5c4=O)CC(C)(C)C6)c3CO)cn(C)c2=O)nn1 [Compound 203]
34 | 8.10 | 7.47 | COCCN1CCn2nc(Nc3cc(-c4ccnc(-n5ncn6c7c(cc6c5=O)CCCC7)c4CO)cn(C)c3=O)cc2C1 [Compound 163]
35 | 8.00 | 7.96 | C[C@H]1COCCN1c1ccc(Nc2cc(-c3ccnc(-n4ncn5c6c(cc5c4=O)CC(C)(C)C6)c3CO)cn(C)c2=O)nn1 [Compound 212]
36 | 8.70 | 7.36 | CCCn1cc(Nc2cc(-c3ccnc(-n4ccn5c6c(cc5c4=O)CC(C)(C)C6)c3CO)cn(C)c2=O)cn1 [Compound 174]
37 | 7.72 | 8.10 | Cn1cc(-c2ccnc(-n3ccn4c5c(cc4c3=O)CC(C)(C)C5)c2CO)cc(Nc2ccccn2)c1=O [Compound 55]
38 | 7.41 | 7.96 | COC1CN(c2ccc(Nc3cc(-c4ccnc(-n5ncn6c7c(cc6c5=O)CC(C)(C)C7)c4CO)cn(C)c3=O)nc2)C1 [Compound 139]
39 | 7.92 | 7.42 | CC1Cc2cc3c(=O)n(-c4nccc(-c5cc(Nc6cc7n(n6)CCOC7)c(=O)n(C)c5)c4CO)ccn3c2C1 (stereo not drawn) [Compound 181]
40 | 8.30 | 8.70 | CC(=O)N1CCn2nc(Nc3cc(-c4ccnc(-n5ccn6c7c(cc6c5=O)CC(C)(C)C7)c4CO)cn(C)c3=O)cc2C1 [Compound 68, 2-(5-((5-acetyl-4,5,6,7-tetrahydropyrazolo[1,5-a]pyrazin-2-yl)amino)-3′-(hydroxymethyl)-1-methyl-6-oxo-1,6-dihydro-[3,4′-bispyridin]-2′-yl)-7,7-dimethyl-7,8-dihydro-2H-cyclopenta[4,5]pyrrolo[1,2-a]pyrazin-1(6H)-one]
41 | 7.96 | 8.00 | Cn1cc(-c2ccnc(-n3ncn4c5c(cc4c3=O)CC(C)(C)C5)c2CO)cc(Nc2ccc(N3CCN(C4COC4)CC3(C)C)cn2)c1=O [Compound 191]
42 | 7.80 | 7.08 | CCn1cc(Nc2cc(-c3ccnc(-n4ccn5c6c(c(F)c5c4=O)CCCC6)c3CO)cn(C)c2=O)cn1 [Compound 180]
43 | 7.31 | 7.34 | C[C@H]1CN(C2COC2)CCN1c1ccc(Nc2cc(-c3ccnc(-n4ccn5c6c(cc5c4=O)COCC6)c3CO)cn(C)c2=O)nc1 [Compound 93]
44 | 7.92 | 7.64 | Cc1nn(-c2nccc(-c3cc(Nc4cc5n(n4)CCN(C4COC4)C5)c(=O)n(C)c3)c2CO)c(=O)c2cc3c(n12)CC(C)(C)C3 [Compound 164]
45 | 7.96 | 8.70 | Cc1ccc(Nc2cc(-c3ccnc(-n4ccn5c6c(cc5c4=O)CC(C)(C)C6)c3CO)cn(C)c2=O)nn1 [Compound 85]
46 | 7.85 | 8.70 | C[C@H]1CN(C2COC2)CCN1c1ccc(Nc2cc(-c3ncnc(-n4ccn5c6c(cc5c4=O)CC(C)(C)C6)c3CO)cn(C)c2=O)nc1 [Compound 65]
47 | 8.40 | 8.40 | CCn1cc(Nc2cc(-c3ccnc(-n4ncn5c6c(cc5c4=O)CC(C)(C)C6)c3CO)cn3ncnc23)nn1 [Compound 208]
48 | 8.22 | 8.70 | Cc1cc(Nc2cc(-c3ccnc(-n4ccn5c6c(cc5c4=O)CC(C)(C)C6)c3CO)cn(C)c2=O)nn1C [Compound 82]
